# Reference: patent US8093385B2, “Leukotriene B4 inhibitors” (Hoffmann-La Roche Inc., priority 2007, dated 2012)
# Structures can show the parent of a compound that is named as a salt.
# System: BLT1 and BLT2 receptors
# Test: Ca2+ Flux Assay for LTB4 Antagonist Assay
# Type: cell-based, Human
# Details: inhibition of LTB4-induced Ca2+ flux (FLIPR), Retinoic Acid induced HL-60 cells endogenously expressing BLT1 and BLT2
# Method: Ca^2+ Flux Assay for LTB4 Antagonist Assay
# Seventy two hours prior to experiment cells are counted using ViaCount reagent, centrifuged and resuspended at 2.0×10^5 cells /ml density with the complete growth media containing 1 μM Retinoic Acid (Sigma).
# On a day of the experiment loading buffer (Calcium-3 Assay Kit, Molecular Devices) was prepared by dissolving the contents of one vial (Express Kit) into 500 ml Hank's Balanced Salt Solution containing 20 mM HEPES and 5 mM probenecid. Equal volume of the loading buffer was mixed with the replacement buffer (Hank's Balanced Salt Solution containing 20 mM HEPES, 0.05% BSA and 5 mM probenecid). Retinoic Acid induced HL-60 cells were counted using ViaCount reagent, centrifuged and resuspended at 2.0×10^6 cells /ml density with the loading buffer/replacement buffer, dispensed into 384 well black/clear microplates (Falcon)(25 μl/well) and placed in a 37° C./5% CO2 incubator for 1 hour.
# During the incubation, test compounds were prepared at 6× the desired concentration in HBSS/20 mM HEPES/0.05% BSA as well as LTB4 (Biomol) was prepared at 2.2× concentration in HBSS/20 mM HEPES/0.5% BSA buffer.
# After the incubation, both the cell and compound plates were brought to the FLIPR and 5 μl of the diluted compounds were transferred to the cell plates by the FLIPR. Plates were then incubated for 30min at room temperature. After the ½ hour incubation, plates were returned to the FLIPR and 25 μl of 2.2× LTB4 was added to the cell plates. During the assay, fluorescence readings were taken simultaneously from all 384 wells of the cell plate every 1.5 seconds. Five readings were taken to establish a stable baseline, then 25 μl (LTB4) of sample was rapidly and simultaneously added to each well of the cell plate. The fluorescence was continuously monitored before, during and after sample addition for a total elapsed time of 100 seconds. Responses (increase in peak fluorescence) in each well following agonist addition was determined. The initial fluorescence reading from each well, prior to ligand stimulation, was used a zero baseline value for the data from that well. The responses are expressed as % inhibition of the neutral control (neutral control: wells that received buffer plus DMSO but no test compound).
row,SMILES,IC50 [nM]
1,"O=C(O)CCCOc1cccc(CCCCCCOc2cc(-c3cccc(F)c3)cc(-c3ccc4c(c3)OCO4)c2)c1CCC(=O)O [Example 17, 4-{3-[6-(5-Benzo[1,3]dioxol-5-yl-3′-fluoro-biphenyl-3-yloxy)-hexyl]-2-(2-carboxy-ethyl)-phenoxy}-butyric acid bis-sodium salt]",1.19

# Same assay, conditions: inhibition of LTB4-induced Ca2+ flux (FLIPR), Retinoic Acid induced HL-60 cells endogenously expressing BLT1 and BLT2; read-out: IC50
row,IC50 [nM],SMILES
1,99.1,"O=C(O)CCCOc1cccc(CCCCCCNc2cc(-c3ccsc3)cc(-c3ccsc3)c2)c1CCC(=O)O [Example 35, 4-{2-(2-Carboxy-ethyl)-3-[6-(3,5-di-thiophen-3-yl-phenylamino)-hexyl]-phenoxy}-butyric acid]"
2,0.47,"Cc1cc(-c2cc(OCCCCCCc3cccc(OCCCC(=O)O)c3CCC(=O)O)cc(-c3ccc(N(C)C)cc3)c2)ccc1F [Example 65, 4-{2-(2-Carboxy-ethyl)-3-[6-(4″-dimethylamino-4-fluoro-3-methyl-[1,1′;3′,1″]terphenyl-5′-yloxy)-hexyl]-phenoxy}-butyric acid]"
3,2.69,"O=C(O)CCCOc1cccc(CCCCCC#Cc2cc(-c3ccccc3)cc(-c3ccccc3)c2)c1CCC(=O)O [Example 48, 4-[2-(2-Carboxy-ethyl)-3-(7-[1,1′;3′,1″]terphenyl-5′-yl-hept-6-ynyl)-phenoxy]-butyric acid]"
4,0.17,"O=C(O)CCCOc1cccc(CCCCCCOc2cc(-c3ccnc(F)c3)cc(-c3ccnc(F)c3)c2)c1CCC(=O)O [Example 3, 4-[3-{6-[3,5-Bis-(2-fluoro-pyridin-4-yl)-phenoxy]-hexyl}-2-(2-carboxy-ethyl)-phenoxy]-butyric acid]"
5,0.58,O=C(O)CCCOc1cccc(CCCCCCOc2cc(-c3ccccc3)cc(-c3ccc(OC(F)(F)F)cc3)c2)c1CCC(=O)O [Example 70]
6,0.25,"O=C(O)CCCOc1cccc(CCCCCCOc2cc(-c3ccccc3)cc(-c3ccccc3F)c2)c1CCC(=O)O [Example 97, 4-{2-(2-Carboxy-ethyl)-3-[6-(2-fluoro-[1,1′;3′,1″]terphenyl-5′-yloxy)-hexyl]-phenoxy}-butyric acid]"
7,0.23,"O=C(O)CCCOc1cccc(CCCCCCOc2cc(-c3ccncc3)cc(-c3ccc4c(c3)OCCO4)c2)c1CCC(=O)O [Example 24, 4-(2-(2-Carboxy-ethyl)-3-{6-[3-(2,3-dihydro-benzo[1,4]dioxin-6-yl)-5-pyridin-4-yl-phenoxy]-hexyl}-phenoxy)-butyric acid]"
8,99.4,"Cc1cc(C(F)(F)F)c(-c2cc(OCCCCCCc3cccc(OCCCC(=O)O)c3CCC(=O)O)cc(-c3ccsc3)c2)c(=O)n1C [Example 28, 4-(2-(2-Carboxy-ethyl)-3-{6-[3-(1,6-dimethyl-2-oxo-4-trifluoromethyl-1,2-dihydro-pyridin-3-yl)-5-thiophen-3-yl-phenoxy]-hexyl}-phenoxy)-butyric acid]"
9,75,"O=C(O)CCCOc1cccc(CCCCCCSc2cc(-c3ccccc3)cc(-c3ccccc3)c2)c1CCC(=O)O [Example 7, 4-{2-(2-Carboxy-ethyl)-3-[6-([1,1′;3′,1″]terphenyl-5′-ylsulfanyl)-hexyl]-pheoxy}-butyric acid]"
10,59.8,"CN(C)c1ccc(-c2cc(OCCCCCCc3cccc(OCCCC(=O)O)c3CCC(=O)O)cc(-c3ccc(Cl)c(F)c3)c2)cc1 [Example 63, 4-{2-(2-Carboxy-ethyl)-3-[6-(4-chloro-4″-dimethylamino-3-fluoro-[1,1′;3′,1″]terphenyl-5′-yloxy)-hexyl]-phenoxy}-butyric acid]"
11,0.21,"O=C(O)CCCOc1cccc(CCCCCCOc2cc(-c3ccsc3)cc(-c3ccc4c(c3)OCO4)c2)c1CCC(=O)O [Example 12, 4-{3-[6-(3-Benzo[1,3]dioxol-5-yl-5-thiophen-3-yl-phenoxy)-hexyl]-2-(2-carboxy-ethyl)-phenoxy}-butyric acid]"
12,0.57,O=C(O)CCCOc1cccc(CCCCCCOc2cc(-c3ccsc3)cc(-c3ccnc(Cl)c3)c2)c1CCC(=O)O [Example 15]
13,0.18,"O=C(O)CCCOc1cccc(CCCCCCOc2cc(-c3ccncc3)cc(-c3cccc(F)c3)c2)c1CCC(=O)O [Example 18, 4-{2-(2-Carboxy-ethyl)-3-[6-(3′-fluoro-5-pyridin-4-yl-biphenyl-3-yloxy)-hexyl]-phenoxy}-butyric acid]"
14,0.58,"O=C(O)CCCOc1cccc(CCCCCCOc2cc(-c3ccsc3)cc(-c3ccsc3)c2)c1CCC(=O)O [Example 56, 4-{2-(2-Carboxy-ethyl)-3-[6-(3,5-di-thiophen-3-yl-phenoxy)-hexyl]-phenoxy}-butyric acid]"
15,0.97,"O=C(O)CCCOc1cccc(CCCCCCOc2cc(-c3ccccn3)cc(-c3ccccn3)c2)c1CCC(=O)O [Example 26, 4-(2-(2-Carboxy-ethyl)-3-{6-[3,5-di-pyridin-2-yl-phenoxy]-hexyl}-phenoxy)-butyric acid]"
16,0.39,"O=C(O)CCCOc1cccc(CCCCCCOc2cc(-c3cncnc3)cc(-c3ccsc3)c2)c1CCC(=O)O [Example 16, 4-{2-(2-Carboxy-ethyl)-3-[6-(3-pyrimidin-5-yl-5-thiophen-3-yl-phenoxy)-hexyl]-phenoxy}-butyric acid]"
17,0.2,"O=C(O)CCCOc1cccc(CCCCCCOc2cc(-c3ccncc3)cc(-c3ccsc3)c2)c1CCC(=O)O [Example 14, 4-{2-(2-Carboxy-ethyl)-3-[6-(3-pyridin-4-yl-5-thiophen-3-yl-phenoxy)-hexyl]-phenoxy}-butyric acid]"
18,0.21,"O=C(O)CCCOc1cccc(CCCCCCOc2cc(-c3ccccc3)cc(-c3ccccc3)c2)c1CCC(=O)O [Example 2, 4-{2-(2-Carboxy-ethyl)-3-[6-([1,1′,3,1″]terphenyl-5′-yloxy)-hexyl]-phenoxy}-butyric acid]"
19,0.61,"COc1ccc(-c2cc(OCCCCCCc3cccc(OCCCC(=O)O)c3CCC(=O)O)cc(-c3ccc(OC)cc3)c2)cc1 [Example 88, 4-{2-(2-Carboxy-ethyl)-3-[6-(4,4″-dimethoxy-[1,1′;3′,1″]terphenyl-5′-yloxy)-hexyl]-phenoxy}-butyric acid]"
20,42.5,"O=C(O)CCCOc1cccc(CCCCCCCc2cc(-c3ccc4c(c3)OCO4)cc(-c3ccc4c(c3)OCO4)c2)c1CCC(=O)O [Example 52, 4-[3-[7-(3,5-Bis-benzo[1,3]dioxol-5-yl-phenyl)-heptyl]-2-(2-carboxy-ethyl)-phenoxy]-butyric acid]"
21,0.07,"O=C(O)CCCOc1cccc(CCCCCCOc2cc(-c3ccncc3)cc(-c3ccncc3)c2)c1CCC(=O)O [Example 1, 4-{2-(2-Carboxy-ethyl)-3-[6-(3,5-di-pyridin-4-yl-phenoxy)-hexyl]-phenoxy}-butyric acid]"
22,0.36,"O=C(O)CCCOc1cccc(CCCCCCOc2cc(-c3ccccc3)cc(-c3ccsc3)c2)c1CCC(=O)O [Example 13, 4-{2-(2-Carboxy-ethyl)-3-[6-(5-thiophen-3-yl-biphenyl-3-yloxy)-hexyl]-phenoxy}-butyric acid]"
23,0.21,"O=C(O)CCCOc1cccc(CCCCCCOc2cc(-c3ccncc3)cc(-c3ccc4c(c3)OCO4)c2)c1CCC(=O)O [Example 20, 4-{3-[6-(3-Benzo[1,3]dioxol-5-yl-5-pyridin-4-yl-phenoxy)-hexyl]-2-(2-carboxy-ethyl)-phenoxy}-butyric acid]"
24,0.64,"O=C(O)CCCOc1cccc(CCCCCCOc2cc(-c3cccnc3)cc(-c3cccnc3)c2)c1CCC(=O)O [Example 4, 4-{2-(2-Carboxy-ethyl)-3-[6-(3,5-di-pyridin-3-yl-phenoxy)-hexyl]-phenoxy}-butyric acid]"
